From EP0403048A2, “Medicated compositions containing sucralfate and processes for their production” (WARNER-LAMBERT COMPANY, priority 1989, dated 1990)
Read-outs that look alike come from different tables or passages of the source.

What was measured:
[1] = in vitro comparative gelling experiment in 0.1N hydrochloric acid; assay type: physicochemical
[2] = tested on: Escherichia coli, A.T.T.C. accession number 8739; test: in-vitro antimicrobial activity, zone of inhibition on agar plates; assay type: cell-based; settings: agar plate well, incubated at 37° C. for 24 hours

Compound: O=C(O)c1ccccc1 [Example 10, Benzoic Acid]
- gel formation [1]: did not gel

Compound: Cl [Example 12, 0.1N Hydrochloric Acid]
- gel formation [1]: gelled

Compound: Sucralfate [Example 1]
- supernatant left after gelling ([1]; 15ml of 0.1N hydrochloric acid): essentially clear
- gelled in (time to gel) ([1]; composition in 15ml of 0.1N hydrochloric acid, Vortex-Genie speed 3 for 10-15 seconds): about 10 seconds

Compound: Sucralfate [Example 7]
- gel formation ([1]; sample preparation for the antimicrobial test: 15ml of 0.1N hydrochloric acid in sterile test tube): gelled
- ZONE OF INHIBITION(CM) [2]: Negative
